Data as given in patent US20250170248A1, “SMARCA DEGRADERS AND USES THEREOF” (Kymera Therapeutics, Inc., priority 2021, published 2025).

Columns and labels:
SMARCA4 = target: T1, SMARCA4 (Homo sapiens, UniProt P51532); assay: SMARCA4 Western blot degradation in MV4-11 cells; type: cell-based; conditions: for Dmax: MV4-11, MV4-11 cells, read-out: SMARCA4 MSD MV411 degradation 24 h: average Dmax %; for Dmax / DC50: 24 h; for DC50 / SMARCA4 MSD MV411 degradation 24 h: average Dmax %: MV4-11 cells; for DC50: read-out: SMARCA4 MSD MV411 degradation 24 h: Mean external-Abs DC50
T1 construct: SMARCA2/SMARCA4 protein degradation selectivity in MV4-11 cells; endogenous in cells; host or cells: MV4-11
T1 sequence (P51532 whole entry): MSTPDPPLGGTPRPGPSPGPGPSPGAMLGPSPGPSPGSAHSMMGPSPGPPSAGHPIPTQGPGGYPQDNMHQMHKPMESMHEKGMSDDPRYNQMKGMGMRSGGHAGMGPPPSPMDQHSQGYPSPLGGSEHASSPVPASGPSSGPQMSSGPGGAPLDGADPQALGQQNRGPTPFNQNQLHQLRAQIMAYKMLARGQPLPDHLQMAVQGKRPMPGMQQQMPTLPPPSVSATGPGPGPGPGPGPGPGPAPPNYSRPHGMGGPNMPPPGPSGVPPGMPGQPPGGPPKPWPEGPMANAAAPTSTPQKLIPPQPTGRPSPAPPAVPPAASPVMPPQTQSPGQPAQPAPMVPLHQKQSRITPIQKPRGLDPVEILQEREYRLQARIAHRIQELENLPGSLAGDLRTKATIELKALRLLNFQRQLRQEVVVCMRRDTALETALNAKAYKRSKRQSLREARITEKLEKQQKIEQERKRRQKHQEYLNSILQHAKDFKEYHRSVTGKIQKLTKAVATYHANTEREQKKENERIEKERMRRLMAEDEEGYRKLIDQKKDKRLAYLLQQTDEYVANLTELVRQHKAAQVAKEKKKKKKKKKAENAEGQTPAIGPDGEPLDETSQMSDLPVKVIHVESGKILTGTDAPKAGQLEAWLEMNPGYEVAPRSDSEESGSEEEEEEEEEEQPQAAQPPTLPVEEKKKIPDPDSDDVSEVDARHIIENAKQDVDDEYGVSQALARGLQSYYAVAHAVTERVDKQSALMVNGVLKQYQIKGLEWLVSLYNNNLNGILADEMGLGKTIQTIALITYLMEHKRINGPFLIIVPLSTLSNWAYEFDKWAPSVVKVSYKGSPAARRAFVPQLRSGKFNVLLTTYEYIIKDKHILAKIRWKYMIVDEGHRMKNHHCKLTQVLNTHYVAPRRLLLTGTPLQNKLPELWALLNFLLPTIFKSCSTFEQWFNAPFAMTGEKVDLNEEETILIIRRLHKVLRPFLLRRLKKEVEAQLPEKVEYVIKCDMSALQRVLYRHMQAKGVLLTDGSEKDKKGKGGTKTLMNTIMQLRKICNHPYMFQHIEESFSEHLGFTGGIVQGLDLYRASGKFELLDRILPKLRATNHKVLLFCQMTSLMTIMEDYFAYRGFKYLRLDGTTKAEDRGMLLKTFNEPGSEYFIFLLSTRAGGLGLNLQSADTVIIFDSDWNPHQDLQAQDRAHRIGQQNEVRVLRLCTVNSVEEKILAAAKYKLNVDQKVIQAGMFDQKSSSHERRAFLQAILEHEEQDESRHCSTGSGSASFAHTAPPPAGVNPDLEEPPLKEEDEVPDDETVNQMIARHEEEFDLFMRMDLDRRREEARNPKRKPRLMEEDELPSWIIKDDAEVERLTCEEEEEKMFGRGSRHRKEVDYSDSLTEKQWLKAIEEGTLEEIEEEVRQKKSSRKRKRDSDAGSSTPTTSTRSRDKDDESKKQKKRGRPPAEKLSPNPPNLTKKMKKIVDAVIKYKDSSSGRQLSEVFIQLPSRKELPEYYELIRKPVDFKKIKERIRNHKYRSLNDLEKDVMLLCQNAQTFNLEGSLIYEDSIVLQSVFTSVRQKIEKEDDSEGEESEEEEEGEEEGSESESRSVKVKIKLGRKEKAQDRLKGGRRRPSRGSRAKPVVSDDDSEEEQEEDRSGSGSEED
Protocol: Example 11. SMARCA2 and SMARCA4 Western Blot MV4-11 Degradation
Cells were seeded into 6-well plates (MV4-11:4×10^6 cells/well/1 ml) and 1 ml of 2× compound solution was added into the well to make the final concentration and the plates were mixed well and incubated for 24 hours (No cytotoxicity was observed). The cell were collected with media and spun at 3000 rpm for 5 minutes. The supernatant was aspirated and the well and the cells were washed with cold PBS once and combined for centrifugation again; the supernatant aspirated again. 200 uL pre-chilled RIPA lysis buffer (Boston BioProducts BP-115D) with protease/phosphatase inhibitor (Roche 05892791001/Roche 04906837001) was directly added into the tube to lyze the cells for 20 minutes on ice. The cell lysate were collected into EP tubes and spun at 13000 rpm for 20 minutes and 72 uL supernatant was transferred to a fresh EP tube containing 18 μL of 5× loading buffer (Beyotime Bio P0015) to make the loading samples. The samples were heated to 100° C. for 10 minutes and cooled to RT and microcentrifuged. 20 μL of samples were loaded onto SDS-PAGE gel (Novex, WG1402BOX) and the gel was run at 80 V for 20 minutes and 120 V for 1.5 hours. The samples were electrotransfer to a NC membrane using wet-transfer method with 250 mA for 2.5 hours. The membrane was blocked with LICOR blocking buffer (LI COR,927-50000) for 1 hour. The membrane was washed three times with TBST(CST #9997S), 5 minutes each. Incubation was performed with primary antibody prepared in blocking buffer with 0.1% Tween-20 (Solarbio, P8220) at 4° C. overnight (Anti-SMARCA2/BRM antibody (ab15597) 1:500; Anti-BRG1 antibody [EPR3912](ab108318) 1:1000; Rabbit anti-Bafl80 antibody [EPR15860](Abcam,ab196022) 1:1000; mouse anti-beta-Actin (8H10D10) (CST #3700) 1:10000). The membrane was washed three times with TBST, 5 minutes each. Incubation with secondary antibody was performed for 1 hour at RT (anti-rabbit IgG (Licor,926-32211) 1:5000; anti-mouse IgG (LI-COR, 926-68070) 1:5000). The membrane was washed three times with 5 minutes each and lastly the LiCOR was read.
The letter codes for SMARCA2/4 degradation potency (DC50) include: A (<1 nM), B (1-10 nM), C (>10-100 nM), and D (>100 nM). The letter codes for the percentage of SMARCA2/4 degradation after 24 hours (Dmax %) include: A (>90% degradation), B (>70-90% degradation), C (50-70% degradation), and D (<50% degradation). The letter codes of SMARCA2/4 selectivity include: A (>500 fold), B (>100-500 fold), C (10-100 fold), and D (<10 fold). Table 8. SMARCA2/4 Selectivity Results

SMARCA2 = SMARCA2 (Homo sapiens, UniProt P51531); assay: SMARCA2 Western blot degradation in MV4-11 cells; type: cell-based; parameters: SMARCA2/SMARCA4 protein degradation selectivity in MV4-11 cells; endogenous in cells; host or cells: MV4-11; conditions: for Dmax: MV4-11, MV4-11 cells, read-out: SMARCA2 MSD MV411 degradation 24 h: average Dmax %; for Dmax / DC50 / SMARCA2 MSD MV411 degradation 24 h: average Dmax %: 24 h; for DC50 / Selectivity in MV411 / SMARCA2 MSD MV411 degradation 24 h: average Dmax %: MV4-11 cells; for DC50: read-out: SMARCA2 MSD MV411 degradation 24 h: Mean external-Abs DC50; for Selectivity in MV411: SMARCA2/4 selectivity
SMARCA2, sequence (P51531 whole entry): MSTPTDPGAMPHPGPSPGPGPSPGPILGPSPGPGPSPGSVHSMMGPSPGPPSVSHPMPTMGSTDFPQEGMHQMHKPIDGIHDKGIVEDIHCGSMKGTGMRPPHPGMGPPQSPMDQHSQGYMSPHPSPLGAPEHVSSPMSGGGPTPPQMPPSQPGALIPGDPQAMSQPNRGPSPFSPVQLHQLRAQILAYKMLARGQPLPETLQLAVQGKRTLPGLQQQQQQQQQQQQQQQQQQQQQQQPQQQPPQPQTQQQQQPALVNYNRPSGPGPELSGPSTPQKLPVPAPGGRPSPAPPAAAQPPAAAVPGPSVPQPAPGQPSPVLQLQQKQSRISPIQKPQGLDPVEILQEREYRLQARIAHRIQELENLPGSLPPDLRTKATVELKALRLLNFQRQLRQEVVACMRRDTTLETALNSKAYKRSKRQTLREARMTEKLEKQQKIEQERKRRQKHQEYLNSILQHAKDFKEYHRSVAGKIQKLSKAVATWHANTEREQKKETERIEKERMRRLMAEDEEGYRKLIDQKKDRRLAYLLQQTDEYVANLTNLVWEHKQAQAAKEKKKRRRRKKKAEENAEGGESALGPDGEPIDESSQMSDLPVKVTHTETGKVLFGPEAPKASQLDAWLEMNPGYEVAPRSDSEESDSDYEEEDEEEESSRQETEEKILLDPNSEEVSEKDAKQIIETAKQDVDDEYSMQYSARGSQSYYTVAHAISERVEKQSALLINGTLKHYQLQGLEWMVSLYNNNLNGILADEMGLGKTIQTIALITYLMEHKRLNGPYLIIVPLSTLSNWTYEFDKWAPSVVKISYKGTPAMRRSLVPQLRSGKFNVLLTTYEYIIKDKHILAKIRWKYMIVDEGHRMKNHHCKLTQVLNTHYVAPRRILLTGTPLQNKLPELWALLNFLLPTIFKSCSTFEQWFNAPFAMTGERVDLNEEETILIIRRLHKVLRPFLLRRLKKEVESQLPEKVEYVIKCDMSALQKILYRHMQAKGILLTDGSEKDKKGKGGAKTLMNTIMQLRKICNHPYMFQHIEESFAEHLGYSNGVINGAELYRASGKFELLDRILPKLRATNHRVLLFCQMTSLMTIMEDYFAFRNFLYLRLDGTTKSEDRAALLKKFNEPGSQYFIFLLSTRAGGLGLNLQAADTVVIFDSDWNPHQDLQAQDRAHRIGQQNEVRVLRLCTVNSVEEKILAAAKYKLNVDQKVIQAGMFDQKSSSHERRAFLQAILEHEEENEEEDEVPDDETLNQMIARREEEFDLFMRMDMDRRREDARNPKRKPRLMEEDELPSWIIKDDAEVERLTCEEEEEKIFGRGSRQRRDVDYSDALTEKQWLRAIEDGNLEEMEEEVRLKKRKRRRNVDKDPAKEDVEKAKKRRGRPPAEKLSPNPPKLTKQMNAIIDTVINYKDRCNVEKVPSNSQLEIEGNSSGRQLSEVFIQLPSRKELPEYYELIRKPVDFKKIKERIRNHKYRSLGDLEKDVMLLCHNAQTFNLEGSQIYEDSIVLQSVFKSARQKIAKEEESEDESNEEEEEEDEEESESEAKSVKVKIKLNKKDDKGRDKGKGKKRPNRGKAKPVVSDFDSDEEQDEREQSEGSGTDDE

Dmax (SMARCA4) [%] | DC50 (SMARCA4) [nM] | Dmax (SMARCA2) [%] | DC50 (SMARCA2) [nM] | Selectivity in MV411 (SMARCA2) | SMARCA4 MSD MV411 degradation 24 h: average Dmax % (SMARCA4) | SMARCA2 MSD MV411 degradation 24 h: average Dmax % (SMARCA2) | SMILES
70 to 90 | 10 to 100 | 70 to 90 | < 1 | C (C (10-100 fold)) |  |  | C#Cc1ccc(CNC(=O)[C@@H]2C[C@@H](O)CN2C(=O)[C@@H](NC(=O)[C@H]2CCC3(CC2)C[C@H](N2CCC(c4cnc(N5CCN6c7cc(-c8ccccc8O)nnc7NC[C@H]6C5)nc4)CC2)C3)C(C)(C)C)cc1 (single isomer, unassigned) [I-25]
 | > 100 |  | 1 to 10 | B (B (>100-500 fold)) | C (C (50-70% degradation)) | B (B (>70-90% degradation)) | C#Cc1ccc(CNC(=O)[C@@H]2C[C@@H](O)CN2C(=O)[C@@H](NC(=O)[C@H]2CCC3(CC2)C[C@H](N2CCC(c4cnc(N5CCN6c7cc(-c8ccccc8O)nnc7NC[C@H]6C5)nc4)CC2)C3)C(C)(C)C)cc1 (single isomer, unassigned) [I-26]
70 to 90 | > 100 | 50 to 70 | 10 to 100 | C (C (10-100 fold)) |  |  | Cc1ncsc1-c1ccc(CNC(=O)[C@@H]2C[C@@H](O)CN2C(=O)[C@@H](NC(=O)C2(F)CC2)C(C)(C)C)c(OC2CCN(Cc3cnc(N4CCc5[nH]c6nnc(-c7ccccc7O)cc6c5[C@H]4C)nc3)CC2)c1 (single isomer, unassigned) [I-42]
< 50 | > 100 | < 50 | > 100 | C (C (10-100 fold)) |  |  | Cc1ncsc1-c1ccc(CNC(=O)[C@@H]2C[C@@H](O)CN2C(=O)[C@@H](NC(=O)C2(F)CC2)C(C)(C)C)c(OC2CCN(Cc3cnc(N4CCc5[nH]c6nnc(-c7ccccc7O)cc6c5[C@@H]4C)nc3)CC2)c1 (single isomer, unassigned) [I-43]
> 90 | 1 to 10 | > 90 | < 1 | D (D (<10 fold)) |  |  | Cc1ncsc1-c1ccc(CNC(=O)[C@@H]2C[C@@H](O)CN2C(=O)[C@@H](NC(=O)C2(F)CC2)C(C)(C)C)c(OCCCCN2CCN(c3cnc(N4CCN5c6cc(-c7ccccc7O)nnc6NC[C@H]5C4)nc3)CC2)c1 (single isomer, unassigned) [I-45]
> 90 | 1 to 10 | > 90 | < 1 | D (D (<10 fold)) |  |  | Cc1ncsc1-c1ccc(CNC(=O)[C@@H]2C[C@@H](O)CN2C(=O)[C@@H](NC(=O)C2(F)CC2)C(C)(C)C)c(OCCCCN2CCC(c3ccnc(N4CCN5c6cc(-c7ccccc7O)nnc6NC[C@H]5C4)n3)CC2)c1 (single isomer, unassigned) [I-46]
70 to 90 | 10 to 100 | > 90 | 1 to 10 | C (C (10-100 fold)) |  |  | Cc1ncsc1-c1ccc(CNC(=O)[C@@H]2C[C@@H](O)CN2C(=O)[C@H](c2cc(N3CC4(CC(N5CCC(c6cnc(N7CCN8c9cc(-c%10ccccc%10O)nnc9NC[C@H]8C7)nc6)CC5)C4)C3)no2)C(C)C)cc1 (single isomer, unassigned) [I-54]
> 90 | < 1 | > 90 | < 1 | D (D (<10 fold)) |  |  | Cc1ncsc1-c1ccc(CNC(=O)[C@@H]2C[C@@H](O)CN2C(=O)[C@@H](c2cc(N3CC4(CC(N5CCC(c6cnc(N7CCN8c9cc(-c%10ccccc%10O)nnc9NC[C@H]8C7)nc6)CC5)C4)C3)no2)C(C)C)cc1 (single isomer, unassigned) [I-55]
50 to 70 | > 100 | 70 to 90 | 1 to 10 | A (A (>500 fold)) |  |  | C#Cc1ccc([C@H](C)NC(=O)[C@@H]2C[C@@H](O)CN2C(=O)[C@@H](NC(=O)[C@H]2CCC3(CC2)C[C@H](N2CCC(c4cnc(N5CCN6c7cc(-c8ccccc8O)nnc7NC[C@H]6C5)nc4)CC2)C3)C(C)(C)C)cc1 (single isomer, unassigned) [I-56]
 | > 100 |  | 1 to 10 | B (B (>100-500 fold)) | D (D (<50% degradation)) | B (B (>70-90% degradation)) | C#Cc1ccc([C@H](C)NC(=O)[C@@H]2C[C@@H](O)CN2C(=O)[C@@H](NC(=O)[C@H]2CCC3(CC2)C[C@H](N2CCC(c4cnc(N5CCN6c7cc(-c8ccccc8O)nnc7NC[C@H]6C5)nc4)CC2)C3)C(C)(C)C)cc1 (single isomer, unassigned) [I-57]
70 to 90 | 10 to 100 | > 90 | 1 to 10 | C (C (10-100 fold)) |  |  | Cc1ncsc1-c1ccc(CNC(=O)[C@@H]2C[C@@H](O)CN2C(=O)[C@@H](NC(=O)[C@H]2CC3(CC[C@H](N4CCC(c5cnc(N6CCN7c8cc(-c9ccccc9O)nnc8NC[C@H]7C6)nc5)CC4)CC3)C2)C(C)(C)C)cc1 (single isomer, unassigned) [I-65]
 | > 100 |  | 10 to 100 | B (B (>100-500 fold)) | D (D (<50% degradation)) | B (B (>70-90% degradation)) | Cc1ncsc1-c1ccc(CNC(=O)[C@@H]2C[C@@H](O)CN2C(=O)[C@@H](NC(=O)[C@H]2CC3(CC[C@H](N4CCC(c5cnc(N6CCN7c8cc(-c9ccccc9O)nnc8NC[C@H]7C6)nc5)CC4)CC3)C2)C(C)(C)C)cc1 (single isomer, unassigned) [I-66]
< 50 | > 100 | 70 to 90 | 1 to 10 | A (A (>500 fold)) |  |  | Cc1ncsc1-c1ccc(CNC(=O)[C@@H]2C[C@@H](O)CN2C(=O)[C@@H](NC(=O)[C@H]2CCC3(CC2)C[C@H](N2CCC(c4cnc(N5CCN6c7cc(-c8ccccc8O)nnc7NC[C@H]6C5)nc4)CC2)C3)C(C)(C)C)cc1 (single isomer, unassigned) [I-70]
< 50 | > 100 | < 50 | > 100 | C (C (10-100 fold)) |  |  | CC(C)C(C(=O)N1C[C@H](O)C[C@H]1C(=O)NCc1ccc(Cl)cc1)c1cc(N2CC3(CC(N4CCC(c5cnc(N6CCN7c8cc(-c9ccccc9O)nnc8NC[C@H]7C6)nc5)CC4)C3)C2)no1 (stereo partly shown) [I-17]
< 50 | > 100 | < 50 | > 100 | C (C (10-100 fold)) |  |  | CC(C)C(C(=O)N1C[C@H](O)C[C@H]1C(=O)NCc1ccc(C#N)cc1)c1cc(N2CC3(CC(N4CCC(c5cnc(N6CCN7c8cc(-c9ccccc9O)nnc8NC[C@H]7C6)nc5)CC4)C3)C2)no1 (stereo partly shown) [I-20]
< 50 | > 100 | 70 to 90 | 10 to 100 | C (C (10-100 fold)) |  |  | C#Cc1ccc(CNC(=O)[C@@H]2C[C@@H](O)CN2C(=O)[C@@H](NC(=O)[C@H]2CC[C@H](c3ccc(-c4cnc(N5CCN6c7cc(-c8ccccc8O)nnc7NC[C@H]6C5)nc4)cc3)CC2)C(C)(C)C)cc1 [I-23]
> 90 | 1 to 10 | > 90 | < 1 | D (D (<10 fold)) |  |  | C#Cc1ccc(CNC(=O)[C@@H]2C[C@@H](O)CN2C(=O)[C@@H](NC(=O)[C@H]2CC[C@@H](c3ccc(-c4cnc(N5CCN6c7cc(-c8ccccc8O)nnc7NC[C@H]6C5)nc4)cc3)CC2)C(C)(C)C)cc1 [I-24]
